Several values for one entry are separate records, joined by “and”; a condition that tells them apart may be missing. Equal values may be shown once. Entries after “also recorded” stand apart in the source; their conditions may differ. Read-outs that look alike come from different tables or passages of the source.
Key:
[1] = tested on: calmodulin-IQSEC2 interaction; test: Binding of luciferase-IQSEC2 to calmodulin-sepharose in vitro; set-up: species or system human; conditions: for EC50: read-out: Free calcium concentration for half-maximal binding of calcium-calmodulin to IQSEC2
Description: The binding of wild type and mutant IQSEC2 to calmodulin was assessed in vitro using calmodulin-sepharose (BioVision, Milipetas, CA). Extracts from stably transfected cells were prepared in either buffer A [50 mM Tris pH 7.5; 150 mM NaCl, 10 mg/ml BSA; 5 mM EGTA and 0.1% Triton X-100] or buffer B [10 mM Tris pH 7.5; 150 mM NaCl, 5 mM EGTA, 5% glycerol, 0.5% Triton X-100]. Extracts were clarified by centrifugation at 14000 rpm at 4° C. to remove insoluble debris and the amount of luciferase activity in the extract assessed using the Promega luciferase assay system and a Turner TD 20/20 luminometer. Extracts (10,000-100,000 luciferase units) were then incubated in buffer A or buffer B with or without CaCl2 in a total volume of 1 cc. The concentration of free calcium in the incubation conditions was calculated using the maxchelator algorithm (maxchelator.stanford.edu) which is based on the ionic strength, pH, temperature and dissociation constant of EGTA for calcium. The concentration of free calcium used in these studies ranged from 0.73 nM to 2 mM. 10 μl of calmodulin-sepharose was added to the incubation and mixed on a rotary apparatus for 3-4 hours. The calmodulin-sepharose was washed twice with binding buffer, resuspended in 100 μl of luciferase reagent lysis buffer and 20 μl was assessed for luciferase activity.
Investigation of this interaction in a cell-free system in vitro using luciferase tagged IQSEC2 and calmodulin coupled to sepharose allowed for the precise control of calcium concentration which is known to dramatically affect the conformation and interactions of calmodulin with other proteins. In this system luciferase activity associated with calmodulin sepharose was used a quantitative readout of the calmodulin-IQSEC2 interaction. The IQ motif is present in over 100 proteins and in some cases preferentially binds to calcium-calmodulin while in other cases it binds preferentially to calcium-free calmodulin (apocalmodulin) (Bahler and Rhoads, 2002). […] However, when the effect of calcium on the IQSEC2 calmodulin interaction was assessed, it was observed that calcium increased the binding of calmodulin to IQSEC2. Upon reviewing the buffers used by the research group in assessing binding of IQSEC2 to calmodulin, it was discovered that the concentration of Triton X-100 used in the binding and wash buffers was differed. […] Triton X-100 binds to most proteins via both hydrophobic and polar interactions [Singh and Kishore, 2006] and may thereby disrupt protein-protein interactions at high concentrations. […] The binding of wild type or A350V luciferase-IQSEC2 to calmodulin was assessed over a wide range of calcium concentrations.

calmodulin = calmodulin (Homo sapiens, UniProt P0DP23); conditions: Persechini and Cronk et al, 1999; read-out: Kd of calcium for calmodulin; cited from earlier work
endogenous Arf6 = test: Arf6-GTP GGA3 pulldown assay in transfected HEK293T cells, with or without ionomycin; format: cell-based, human
Description: For the assessment of Arf6-GTP using a GGA-3 pulldown assay and western blot, HEK293T cells were transfected with FLAG-tagged WT, A350V, or R359C IQSEC2 in pCAGGS vector by calcium phosphate. Twenty-four hours after transfection, the cultures were treated with 5 μM ionomycin or ethanol vehicle for 5 mins, then lysed in 50 mM Tris-HCl, pH 7.5, 100 mM NaCl, 2 mM MgCl2, 0.2% SDS, 0.5% sodium deoxycholate, 1% Triton X-100, 10% glycerol, and 1× Halt protease inhibitor cocktail. An Arf6-GTP pull-down assay was carried out as described (Shoubridge et al, 2010). Briefly, lysates were cleared by centrifugation at 10,000 rpm for 10 min and incubated with GGA3:GST on glutathione-sepharose beads for 5 hours at 4° C. The beads were washed and bound proteins were eluted and probed by immunoblot with rabbit anti-Arf6 (1:750, Cell Signaling #5740). Lysates were also probed against total Arf6 and with rabbit anti-FLAG (1:1000; Covance #PRB-132P) to detect expression of FLAG-IQSEC2. Bands were visualized with the use of a LiCor Odyssey imaging system and quantified with Image Studio Lite. Each band was normalized to the untreated sham-transfected control. The data were statistically analyzed by one-way ANOVA followed by Tukey's Multiple Comparison Test for post-hoc analysis.
The activation of Arf6 (Arf6-GTP) by wild type, A350V, or R359C IQSEC2 in a GGA3 pulldown assay was also assessed. HEK 293T cells were transiently transfected with constructs to express either wild type, A350V or R359C IQSEC2, and endogenous Arf6 activation was tested with or without treatment with the calcium ionophore ionomycin. […] Cell lysates were incubated with beads coated with GGA3:GST to isolate the GTP-bound Arfs, and bound Arf6 was assessed by immunoblot (FIG. 4A).

With [Ca+2] [calcium] the “Change in binding of calmodulin to wild type IQSEC2” value ([1]; 100 μM calcium, high (0.5%) Triton X-100) was “several fold decrease; also recorded: significant decrease”, the “Change in binding of calmodulin to wild type IQSEC2” value ([1]; 100 uM calcium, low (0.1%) Triton X-100) was “several fold increase; also recorded: significant increase” and the EC50 ([1]; A350V IQSEC2, 0.1% Triton X-100) was roughly 1000 nM. For the same compound, the EC50 ([1]; wild type IQSEC2, 0.1% Triton X-100) was roughly 1000 nM and the Kd (calmodulin) was 1000 nM and ~1000 nM.
In the case of C[C@H](CCC(=O)O)C[C@H](C)C[C@H](C)C(=O)/C=C(\O)[C@H](C)C[C@H](C)C/C=C/[C@@H](C)[C@@H](O)[C@@H](C)[C@@H](O)C[C@@H]1CC[C@@](C)([C@H]2CC[C@@](C)([C@@H](C)O)O2)O1 [ionomycin], the “Effect of ionomycin on Arf6 activation” value (endogenous Arf6; HEK293T cells transfected with A350V IQSEC2) is reported as “did not further increase Arf6 activation”, the “Effect of ionomycin on Arf6-GTP induction” value (endogenous Arf6; HEK293T cells transfected with R359C IQSEC2) is reported as “unresponsive” and the “Arf6 activation (Arf6-GTP) compared to sham transfected cells” value (endogenous Arf6; HEK293T cells transfected with wild type IQSEC2, 5 μM ionomycin for 5 mins) is reported as 8.03±1.89 fold increase.

Reference: patent US12116611B2, “Method of treating intellectual disability, autism and epilepsy associated with an IQSEC2 mutation and for identifying medicaments for treating the same” (TECHNION RESEARCH & DEVELOPMENT FOUNDATION LIMITED, priority 2018, dated 2024)
